Results reported in US7691901B2, “Carotenoid analogs or derivatives for the inhibition and amelioration of inflammation” (Cardax Pharmaceuticals Inc., priority 2004, dated 2010).

Test system: lipid peroxidation products
Experiment: Thioglycollate/Zymosan-induced peritonitis model: lipid oxidation products in peritoneal lavage by electrospray ionization tandem mass spectrometry
Assay type: in vivo, mice
Settings: for 13-HODE MEAN / 13-HODE MEDIAN / Prostaglandin F2α (PGF2α) MEAN / Prostaglandin F2α (PGF2α) MEDIAN / 9-HETE/AA (ratio) MEAN / 9-HETE/AA (ratio) MEDIAN / 9-HODE MEAN / 9-HODE MEDIAN / 9-HETE MEAN / 9-HETE MEDIAN / Linoleic Acid MEAN / Linoleic Acid MEDIAN / Arachidonic Acid MEAN / Arachidonic Acid MEDIAN / PGF2a/AA (ratio) MEAN / PGF2a/AA (ratio) MEDIAN / 13-HODE/AA (ratio) MEAN / 13-HODE/AA (ratio) MEDIAN / 9-HODE/LA (ratio) MEAN / 9-HODE/LA (ratio) MEDIAN / 11-HETE MEAN / 11-HETE MEDIAN / 5-HETE MEAN / 5-HETE MEDIAN / 11-HETE/AA (ratio) MEAN / 11-HETE/AA (ratio) MEDIAN / 5-HETE/AA (ratio) MEAN / 5-HETE/AA (ratio) MEDIAN: 500 mg/kg oral gavage
Method: Thioglycollate/Zymosan—Induced Peritonitis Model: Wild-type mice were administered either 500 mg/kg body weight of disodium disuccinate astaxanthin (ddAst/Cardax™) in an oil emulsion vehicle, or normal saline (NS) as a negative control, by oral gavage at 24 hours intervals beginning 7 days prior to the induction of peritonitis. Peritonitis was induced experimentally as follows: mice were injected intraperitoneally with 1 ml of 4% by weight thioglycollate (Tg) broth, to induce the recruitment of proinflammatory cells to the peritoneum. Either 16 hours or 72 hours after recruitment, approximately half of the mice were injected intraperitoneally with 250 mg/kg body weight of zymosan (Z) for a further 4 hours. The mice not receiving zymosan underwent no further treatment. Peritoneal lavage was performed in control animals or animals treated with (ddAst) 16 hours post Tg injection, or 20 h following the combination of both Tg injection (16 hours) followed by Z injection (4 hours), as indicated (Tg/Z). Peritoneal lavages were performed with phosphate-buffered saline containing antioxidant (0.1 mM butylated hydroxytoluene (BHT)) and 2 mM of the metal chelator diethylenetriamine pentaacetic acid (DTPA) according to established practices in the art. The lavage suspensions were transferred to screw-capped tubes under an argon atmosphere, and immediately centrifuged at 1000 rpm in a table top microcentrifuge for 10 min at 4° C. to remove whole cells and debris. All analyses of lipid peroxidation products was performed on cell-free lavage supernatants. Cell pellets were resuspended in phosphate-buffered saline containing 0.1 mM BHT and 0.1 mM DTPA, and differential cell counts (macrophages, monocytes, eosinophils, lymphocytes, neutrophils, and erythrocytes) were performed on cytospun preparations of isolated cells according to established procedures in the art.
Electrospray ionization tandem mass spectrometry was used to simultaneously quantify individual molecular species of HETEs, HPETEs, the prostaglandin PGF2α, F2-isoprostanoids, hydroxy- and hydroperoxy-octadecadienoic acids (H(P)ODEs), and their precursors, arachidonic acid (AA) and linoleic acid (LA). Additionally, the molar ratios of o-tyrosine (oY/F). were measured.

[1] = 16 Hour Thioglycollate/4 Hour Zymosan, P-VALUE 0.165
[2] = 16 Hour Thioglycollate/4 Hour Zymosan, P-VALUE 0.250
[3] = 16 Hour Thioglycollate/4 Hour Zymosan, P-VALUE 0.272 NP
[4] = 16 Hour Thioglycollate/4 Hour Zymosan, P-VALUE 0.299
[5] = 16 Hour Thioglycollate/4 Hour Zymosan, P-VALUE 0.354
[6] = 16 Hour Thioglycollate/4 Hour Zymosan, P-VALUE 0.557
[7] = 16 Hour Thioglycollate/4 Hour Zymosan, P-VALUE 0.685 NP
[8] = 16 Hour Thioglycollate/4 Hour Zymosan, P-VALUE 0.772 NP
[9] = 16 Hour Thioglycollate/4 Hour Zymosan, P-VALUE 0.862 NP
[10] = 16 Hour Thioglycollate/4 Hour Zymosan, P-VALUE 0.900
[11] = 16 Hour Thioglycollate/4 Hour Zymosan, P-VALUE 0.954 NP
[12] = 16 Hour Thioglycollate/4 Hour Zymosan, P-VALUE 1.000 NP
[13] = 16 Hour Thioglycollate/4 Hour Zymosan
[14] = 16 Hour Thioglycollate, P-VALUE 0.018
[15] = 16 Hour Thioglycollate, P-VALUE 0.040
[16] = 16 Hour Thioglycollate, P-VALUE 0.096
[17] = 16 Hour Thioglycollate, P-VALUE 0.120
[18] = 16 Hour Thioglycollate, P-VALUE 0.172
[19] = 16 Hour Thioglycollate, P-VALUE 0.227 NP
[20] = 16 Hour Thioglycollate, P-VALUE 0.318 NP
[21] = 16 Hour Thioglycollate, P-VALUE 0.372 NP
[22] = 16 Hour Thioglycollate, P-VALUE 0.564 NP
[23] = 16 Hour Thioglycollate, P-VALUE 0.793 NP
[24] = 16 Hour Thioglycollate, P-VALUE 0.875 NP
[25] = 16 Hour Thioglycollate, P-VALUE 0.958 NP
[26] = 16 Hour Thioglycollate, P-VALUE 0.982
[27] = 16 Hour Thioglycollate, P-VALUE 0.986
[28] = 72 Hour Thioglycollate/4 Hour Zymosan, P-VALUE 0.001 NP
[29] = 72 Hour Thioglycollate/4 Hour Zymosan, P-VALUE 0.002 NP
[30] = 72 Hour Thioglycollate/4 Hour Zymosan, P-VALUE 0.006
[31] = 72 Hour Thioglycollate/4 Hour Zymosan, P-VALUE 0.008
[32] = 72 Hour Thioglycollate/4 Hour Zymosan, P-VALUE 0.010
[33] = 72 Hour Thioglycollate/4 Hour Zymosan, P-VALUE 0.018 NP
[34] = 72 Hour Thioglycollate/4 Hour Zymosan, P-VALUE 0.056 NP
[35] = 72 Hour Thioglycollate/4 Hour Zymosan, P-VALUE 0.118 NP
[36] = 72 Hour Thioglycollate/4 Hour Zymosan, P-VALUE 0.271
[37] = 72 Hour Thioglycollate/4 Hour Zymosan, P-VALUE 0.385 NP
[38] = 72 Hour Thioglycollate/4 Hour Zymosan, P-VALUE 0.629

## CC1=C(/C=C/C(C)=C/C=C/C(C)=C/C=C/C=C(C)/C=C/C=C(C)/C=C/C2=C(C)C(=O)C(OC(=O)CCC(=O)O)CC2(C)C)C(C)(C)CC(OC(=O)CCC(=O)O)C1=O (stereo not drawn) [Cardax, disodium disuccinate astaxanthin]
[1]
  13-HODE MEAN: 5.689 pmol
  13-HODE MEDIAN: 4.768 pmol
[2]
  Prostaglandin F2α (PGF2α) MEAN: 0.038 pmol
  Prostaglandin F2α (PGF2α) MEDIAN: 0.035 pmol
[3]
  9-HETE/AA (ratio) MEAN: 0.529
  9-HETE/AA (ratio) MEDIAN: 0.472
[4]
  9-HODE MEAN: 2.767 pmol
  9-HODE MEDIAN: 2.825 pmol
[5]
  9-HETE MEAN: 0.559 pmol
  9-HETE MEDIAN: 0.612 pmol
[6]
  Linoleic Acid MEAN: 13158 pmol
  Linoleic Acid MEDIAN: 10509 pmol
[7]
  Arachidonic Acid MEAN: 1208.5 pmol
  Arachidonic Acid MEDIAN: 1039.6 pmol
  PGF2a/AA (ratio) MEAN: 0.038
  PGF2a/AA (ratio) MEDIAN: 0.025
[8]
  13-HODE/AA (ratio) MEAN: 0.456
  13-HODE/AA (ratio) MEDIAN: 0.376
[9]
  9-HODE/LA (ratio) MEAN: 0.245
  9-HODE/LA (ratio) MEDIAN: 0.201
  11-HETE MEAN: 0.654 pmol
  11-HETE MEDIAN: 0.450 pmol
[10]
  5-HETE MEAN: 1.082 pmol
  5-HETE MEDIAN: 0.953 pmol
[11]
  11-HETE/AA (ratio) MEAN: 0.669
  11-HETE/AA (ratio) MEDIAN: 0.453
[12]
  5-HETE/AA (ratio) MEAN: 0.997
  5-HETE/AA (ratio) MEDIAN: 0.770
[13]
  5-oxo-ETE (pmol), MEAN: 0.085 pmol
  5-oxo-ETE (ratio), MEAN: 0.080 ratio
  8-iso-F2a (pmol), MEAN: 0.012 pmol
  8-iso-F2a/AA (ratio), MEAN: 0.011 ratio
  5-oxo-ETE (pmol), MEDIAN: 0.083 pmol
  5-oxo-ETE (ratio), MEDIAN: 0.081 ratio
  8-iso-F2a (pmol), MEDIAN: 0.000 pmol
  8-iso-F2a/AA (ratio), MEDIAN: 0.000 ratio
[14]
  Arachidonic Acid MEAN: 1791.6 pmol
  Arachidonic Acid MEDIAN: 1854.3 pmol
[15]
  Linoleic Acid MEAN: 22739 pmol
  Linoleic Acid MEDIAN: 22907 pmol
[16]
  13-HODE/AA (ratio) MEAN: 0.905
  13-HODE/AA (ratio) MEDIAN: 0.920
[17]
  9-HODE MEAN: 5.367 pmol
  9-HODE MEDIAN: 3.831 pmol
[18]
  Prostaglandin F2α (PGF2α) MEAN: 0.037 pmol
  Prostaglandin F2α (PGF2α) MEDIAN: 0.033 pmol
[19]
  9-HETE/AA (ratio) MEAN: 0.476
  9-HETE/AA (ratio) MEDIAN: 0.448
[20]
  5-HETE MEAN: 0.334 pmol
  5-HETE MEDIAN: 0.255 pmol
[21]
  11-HETE MEAN: 0.434 pmol
  11-HETE MEDIAN: 0.329 pmol
[22]
  9-HODE/LA (ratio) MEAN: 0.292
  9-HODE/LA (ratio) MEDIAN: 0.255
[23]
  11-HETE/AA (ratio) MEAN: 0.239
  11-HETE/AA (ratio) MEDIAN: 0.195
[24]
  5-HETE/AA (ratio) MEAN: 0.218
  5-HETE/AA (ratio) MEDIAN: 0.151
[25]
  9-HETE MEAN: 0.826 pmol
  9-HETE MEDIAN: 0.718 pmol
[26]
  13-HODE MEAN: 18.838 pmol
  13-HODE MEDIAN: 15.191 pmol
[27]
  PGF2a/AA (ratio) MEAN: 0.034
  PGF2a/AA (ratio) MEDIAN: 0.018
16 Hour Thioglycollate
  5-oxo-ETE (pmol), MEAN: 0.128 pmol
  5-oxo-ETE (ratio), MEAN: 0.056 ratio
  8-iso-F2a (pmol), MEAN: 0.052 pmol
  8-iso-F2a/AA (ratio), MEAN: 0.044 ratio
  5-oxo-ETE (pmol), MEDIAN: 0.078 pmol
  5-oxo-ETE (ratio), MEDIAN: 0.067 ratio
  8-iso-F2a (pmol), MEDIAN: 0.069 pmol
  8-iso-F2a/AA (ratio), MEDIAN: 0.034 ratio
[28]
  Arachidonic Acid MEAN: 3554.3 pmol
  Arachidonic Acid MEDIAN: 2429.5 pmol
[29]
  5-HETE/AA (ratio) MEAN: 0.369
  5-HETE/AA (ratio) MEDIAN: 0.333
[30]
  9-HODE/LA (ratio) MEAN: 0.132
  9-HODE/LA (ratio) MEDIAN: 0.134
[31]
  11-HETE/AA (ratio) MEAN: 0.253
  11-HETE/AA (ratio) MEDIAN: 0.237
[32]
  PGF2a/AA (ratio) MEAN: 0.011
  PGF2a/AA (ratio) MEDIAN: 0.012
[33]
  Linoleic Acid MEAN: 33183 pmol
  Linoleic Acid MEDIAN: 27585 pmol
[34]
  9-HETE/AA (ratio) MEAN: 0.253
  9-HETE/AA (ratio) MEDIAN: 0.244
[35]
  9-HETE MEAN: 0.917 pmol
  9-HETE MEDIAN: 0.687 pmol
  13-HODE/AA (ratio) MEAN: 0.229
  13-HODE/AA (ratio) MEDIAN: 0.186
[36]
  13-HODE MEAN: 7.181 pmol
  13-HODE MEDIAN: 6.732 pmol
[37]
  5-HETE MEAN: 1.236 pmol
  5-HETE MEDIAN: 0.997 pmol
[38]
  Prostaglandin F2α (PGF2α) MEAN: 0.040 pmol
  Prostaglandin F2α (PGF2α) MEDIAN: 0.039 pmol
